Test results published in patent publication US20040146554A1, “Method for the administration of acid-labile drugs” (priority 2000, published 2004).

What was measured:
[1] = Suspending PPI capsule granules or tablets in calcium carbonate suspension; type: physicochemical; details: granular contents of capsule (20 mg omeprazole, 30 mg lansoprazole) in 10 cc of 4 gm % or 8 gm % calcium carbonate suspension
Procedure: More specifically, suspensions of calcium carbonate were produced by dissolving either 400 mg or 800 mg of calcium carbonate in 10 cc of water, resulting in suspensions of 4 gm % and 8 gm %, respectively. In separate 10 cc preparations of either strength of the calcium carbonate suspension, the granular contents of a 20 mg omeprazole capsule, a 30 mg lansoprazole capsule, a 20 mg rabeprazole tablet, and a 40 mg pantoprazole tablet were suspended. In approximately 30 minutes, the granules of the omeprazole and lansoprazole capsules were in complete suspension. In approximately two hours, the contents of the tablets of rabeprazole and pantoprazole had completely suspended.

gastric acid secretion = details: intact granules suspended in orange juice, via gastrostomy tube; cited from earlier work

time until granules were in complete suspension [1]: approximately 30 minutes
Compound: Cc1c(OCC(F)(F)F)ccnc1C[S+]([O-])c1nc2ccccc2[nH]1 (centres unmarked) [lansoprazole]
suppression of gastric acid secretion (gastric acid secretion): produced the desired effect of suppressing gastric acid secretion
